Measured values published in patent US20050152835A1, “Technetium-99M glucarate methods of use for monitoring tissues” (priority 2003, published 2005).

What was measured:
[1] = tested on: plasmocytoma (localized myeloma); assay: Scintigraphy of a patient with plasmocytoma of T8; assay type: in vivo, human
Procedure: A patient complaining of invalidation pain in the spine (mid-thorax) for about two months. Peak of monoclonal IgG-k in serum. Bence-Jones protein in urine. Spine CT. lytic lesion of T8, with soft tissue infiltration. […] Uptake was obvious in the early images, 15 and 30 min p.i., late acquisition, 6 hr p.i., made the tracer uptake much more obvious.

[2] = tested on: infarcted hearts; details: isoproterenol-induced myocardial infarction; cited from earlier work

In the case of ^99mTc-glucarate, the “scan finding at diagnosis” value ([1]; patient with lytic lesion of T8, posterior view) is given as “focally increase tracer uptake in the bone lesion and in soft tissue”, the “scan finding after about 1 year of stabilization and external radiotherapy” value ([1]; posterior view) is given as “normal physiologic tracer distribution, without areas of focally increased uptake” and the “uptake in infarcted hearts relative to normal rats” value [2] is given as 6 times.
